Measurements published in ChEMBL document CHEMBL5154942, “Discovery of Clinical Candidate NTQ1062 as a Potent and Bioavailable Akt Inhibitor for the Treatment of Human Tumors” (J Med Chem, 2022).
One block for each compound: values may come before it.

Legend:
Cytochrome P450 2C19 = Cytochrome P450 2C19 (Homo sapiens, UniProt P33261); experiment: Inhibition of CYP2C19 in human liver microsomes at 0.01 to 30 uM using mephenytoin as substrate in presence of NADPH by UPLC-MS/MS analysis; type: ADME, Microsome
Cytochrome P450 2C19, sequence (P33261 whole entry, the tested form may be a part): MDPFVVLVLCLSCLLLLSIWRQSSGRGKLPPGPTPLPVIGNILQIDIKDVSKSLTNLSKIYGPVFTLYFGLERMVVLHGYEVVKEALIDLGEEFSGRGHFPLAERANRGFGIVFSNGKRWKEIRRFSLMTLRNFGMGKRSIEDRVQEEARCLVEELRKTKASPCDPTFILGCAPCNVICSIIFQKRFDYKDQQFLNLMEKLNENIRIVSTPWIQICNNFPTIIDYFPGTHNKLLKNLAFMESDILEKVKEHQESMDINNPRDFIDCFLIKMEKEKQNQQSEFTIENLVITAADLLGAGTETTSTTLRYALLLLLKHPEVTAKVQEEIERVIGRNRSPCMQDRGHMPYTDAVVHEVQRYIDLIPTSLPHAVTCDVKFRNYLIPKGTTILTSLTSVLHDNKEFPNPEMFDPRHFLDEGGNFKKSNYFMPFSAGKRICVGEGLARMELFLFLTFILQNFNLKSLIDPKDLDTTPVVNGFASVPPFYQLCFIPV

[1] = target: RAC-alpha serine/threonine-protein kinase (Homo sapiens, UniProt P31749); experiment: Inhibition of recombinant AKT1 (104 to 480 end residues) (unknown origin) catalytic domain expressed in Sf21 cells using peptide substrate incubated for 1 hr in presence of ATP by caliper off-chip mobility shift assay
RAC-alpha serine/threonine-protein kinase, sequence (P31749 whole entry, the tested form may be a part): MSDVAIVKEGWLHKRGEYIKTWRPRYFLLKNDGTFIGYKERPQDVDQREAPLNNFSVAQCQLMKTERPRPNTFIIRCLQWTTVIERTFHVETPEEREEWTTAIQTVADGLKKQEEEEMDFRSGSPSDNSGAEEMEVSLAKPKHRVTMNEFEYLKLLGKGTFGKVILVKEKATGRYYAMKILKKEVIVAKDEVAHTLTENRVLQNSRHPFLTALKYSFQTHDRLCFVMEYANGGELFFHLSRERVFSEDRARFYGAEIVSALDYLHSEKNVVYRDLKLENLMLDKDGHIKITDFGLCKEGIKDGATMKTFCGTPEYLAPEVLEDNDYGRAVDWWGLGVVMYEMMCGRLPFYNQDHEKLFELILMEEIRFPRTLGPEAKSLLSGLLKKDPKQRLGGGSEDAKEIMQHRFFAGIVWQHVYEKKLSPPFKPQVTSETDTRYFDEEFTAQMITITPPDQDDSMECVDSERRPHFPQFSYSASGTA

Cytochrome P450 2D6 = Cytochrome P450 2D6 (Homo sapiens, UniProt P10635); experiment: Inhibition of CYP2D6 in human liver microsomes at 0.01 to 30 uM using dextromethorphan as substrate in presence of NADPH by UPLC-MS/MS analysis; type: ADME, Microsome
Cytochrome P450 2D6, sequence (P10635 whole entry): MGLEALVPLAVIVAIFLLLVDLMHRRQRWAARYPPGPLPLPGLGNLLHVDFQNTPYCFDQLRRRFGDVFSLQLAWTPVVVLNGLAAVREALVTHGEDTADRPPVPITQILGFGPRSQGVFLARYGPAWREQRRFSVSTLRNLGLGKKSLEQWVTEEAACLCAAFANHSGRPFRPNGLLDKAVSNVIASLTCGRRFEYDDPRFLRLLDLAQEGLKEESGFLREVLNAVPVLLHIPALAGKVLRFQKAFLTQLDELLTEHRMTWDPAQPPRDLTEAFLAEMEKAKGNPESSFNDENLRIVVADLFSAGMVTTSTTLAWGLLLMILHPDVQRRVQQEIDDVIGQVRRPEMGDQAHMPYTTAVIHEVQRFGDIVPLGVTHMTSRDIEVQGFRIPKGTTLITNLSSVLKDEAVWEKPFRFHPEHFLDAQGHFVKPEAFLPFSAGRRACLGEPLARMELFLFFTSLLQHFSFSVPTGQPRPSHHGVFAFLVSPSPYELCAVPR

Cytochrome P450 2C9 = Cytochrome P450 2C9 (Homo sapiens, UniProt P11712); experiment: Inhibition of CYP2C9 in human liver microsomes at 0.01 to 30 uM using diclofenac as substrate in presence of NADPH by UPLC-MS/MS analysis; type: ADME, Microsome
Cytochrome P450 2C9, sequence (P11712 whole entry): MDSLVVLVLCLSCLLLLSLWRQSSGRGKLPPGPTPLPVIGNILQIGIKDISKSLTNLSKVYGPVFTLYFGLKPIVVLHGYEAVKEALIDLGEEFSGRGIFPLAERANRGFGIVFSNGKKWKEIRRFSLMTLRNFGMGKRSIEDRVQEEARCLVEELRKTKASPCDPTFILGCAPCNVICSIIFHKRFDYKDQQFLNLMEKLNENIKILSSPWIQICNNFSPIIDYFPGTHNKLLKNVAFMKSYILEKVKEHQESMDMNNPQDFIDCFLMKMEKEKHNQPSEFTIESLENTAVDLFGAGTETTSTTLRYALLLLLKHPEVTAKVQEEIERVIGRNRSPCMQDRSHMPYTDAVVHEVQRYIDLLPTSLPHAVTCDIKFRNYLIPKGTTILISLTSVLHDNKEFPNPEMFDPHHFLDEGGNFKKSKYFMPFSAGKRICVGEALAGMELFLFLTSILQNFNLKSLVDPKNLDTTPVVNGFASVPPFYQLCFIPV

Cytochrome P450 3A4 = Cytochrome P450 3A4 (Homo sapiens, UniProt P08684); experiment: Inhibition of CYP3A4 in human liver microsomes at 0.01 to 30 uM […] in presence of NADPH by UPLC-MS/MS analysis; type: ADME, Microsome
Cytochrome P450 3A4, sequence (P08684 whole entry): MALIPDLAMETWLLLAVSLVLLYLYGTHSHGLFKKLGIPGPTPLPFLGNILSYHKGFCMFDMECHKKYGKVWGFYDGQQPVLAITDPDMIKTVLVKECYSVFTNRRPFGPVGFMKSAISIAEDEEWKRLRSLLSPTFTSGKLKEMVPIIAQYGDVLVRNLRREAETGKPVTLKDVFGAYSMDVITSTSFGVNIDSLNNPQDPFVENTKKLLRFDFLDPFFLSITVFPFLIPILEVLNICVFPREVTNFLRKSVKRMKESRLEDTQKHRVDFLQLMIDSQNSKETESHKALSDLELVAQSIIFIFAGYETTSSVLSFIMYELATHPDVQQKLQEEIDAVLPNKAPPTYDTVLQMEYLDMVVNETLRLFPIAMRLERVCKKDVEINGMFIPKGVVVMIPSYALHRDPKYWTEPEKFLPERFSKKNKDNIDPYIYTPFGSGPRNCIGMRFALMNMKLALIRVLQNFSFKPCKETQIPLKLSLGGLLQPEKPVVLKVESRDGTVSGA

Cytochrome P450 1A2 = target: T1, Cytochrome P450 1A2 (Homo sapiens, UniProt P05177); experiment: Inhibition of CYP1A2 in human liver microsomes at 0.01 to 30 uM […] in presence of NADPH by UPLC-MS/MS analysis; type: ADME, Microsome
T1 sequence (P05177 whole entry): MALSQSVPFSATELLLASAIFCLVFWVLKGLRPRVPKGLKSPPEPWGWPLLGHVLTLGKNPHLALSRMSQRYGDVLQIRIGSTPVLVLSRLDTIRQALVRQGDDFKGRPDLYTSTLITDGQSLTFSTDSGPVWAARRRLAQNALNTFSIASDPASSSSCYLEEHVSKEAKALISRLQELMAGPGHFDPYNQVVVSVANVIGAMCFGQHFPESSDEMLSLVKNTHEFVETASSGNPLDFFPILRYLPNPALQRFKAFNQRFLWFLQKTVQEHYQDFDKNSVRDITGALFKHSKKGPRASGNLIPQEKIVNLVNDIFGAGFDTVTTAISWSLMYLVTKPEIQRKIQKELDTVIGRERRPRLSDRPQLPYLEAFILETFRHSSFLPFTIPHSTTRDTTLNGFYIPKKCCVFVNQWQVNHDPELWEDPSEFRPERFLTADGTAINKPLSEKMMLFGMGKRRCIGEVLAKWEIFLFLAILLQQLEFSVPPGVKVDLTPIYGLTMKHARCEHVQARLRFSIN

[2] = Oral bioavailability in overnight fasted ICR mouse at 10 mg/kg measured upto 24 hrs by UPLC-MS/MS analysis; type: ADME, organism-based; conditions: in vivo
[3] = AUC (0 to infinity) in overnight fasted ICR mouse at 10 mg/kg, po measured upto 24 hrs by UPLC-MS/MS analysis; type: ADME, organism-based; set-up: dose 10 mg/kg, time < 24 hrs, route po; conditions: in vivo
LNCaP [4] = experiment: Antiproliferative activity against human LNcap assessed as reduction in cell viability incubated for 72 hrs by Cell Titer Glo luminescent assay
LNCaP [5] = experiment: In vivo antitumor activity against human LNCap cells xenografted in NCG mouse assessed as tumor growth inhibition at 50 mg/kg administered once daily for 18 to 21 days relative to control; type: functional; conditions: time 18-21 day, read-out: TGI
PC-3 = experiment: cells; conditions: Homo sapiens, PC-3, 72 h
RL95-2 = experiment: cells; conditions: Homo sapiens, RL95-2, 72 h
TOV21G = experiment: cells; conditions: Homo sapiens, 72 h
C-33-A = experiment: cells; conditions: Homo sapiens, 72 h
T47D = experiment: cells; conditions: Homo sapiens, 72 h
ZR-75-1 = experiment: cells; conditions: Homo sapiens, ZR-75-1, 72 h
cells = conditions: Homo sapiens, COLO 704, 72 h
CAL-51 = experiment: cells; conditions: Homo sapiens, CAL-51, 72 h
[6] = Plasma protein binding in human at 1 to 100 uM incubated for 16 hrs by UPLC-MS/MS analysis; type: ADME, cell-free; conditions: dose 1-100 µM, read-out: PPB (converted)
[7] = Clearance in ICR mouse at 2 mg/kg, iv measured upto 24 hrs by UPLC-MS/MS analysis; type: ADME, organism-based; conditions: in vivo
[8] = Plasma protein binding in mouse at 1 to 100 uM incubated for 16 hrs by UPLC-MS/MS analysis; type: ADME, cell-free; conditions: dose 1-100 µM, read-out: PPB (converted)
[9] = MRT(0 to t) in overnight fasted ICR mouse at 10 mg/kg, po measured upto 24 hrs by UPLC-MS/MS analysis; type: ADME, organism-based; conditions: in vivo
[10] = Half life in ICR mouse at 2 mg/kg, iv measured upto 24 hrs by UPLC-MS/MS analysis; type: ADME, organism-based; conditions: in vivo
[11] = Plasma protein binding in human assessed as unbound fraction at 1 to 100 uM incubated for 16 hrs by UPLC-MS/MS analysis; type: ADME, cell-free; conditions: dose 1-100 µM
[12] = Tmax in overnight fasted ICR mouse at 10 mg/kg, po measured upto 24 hrs by UPLC-MS/MS analysis; type: ADME, organism-based; conditions: in vivo
[13] = AUC (0 to infinity) in ICR mouse at 2 mg/kg, iv measured upto 24 hrs by UPLC-MS/MS analysis; type: ADME, organism-based; set-up: dose 2 mg/kg, time < 24 hrs, route iv; conditions: in vivo
[14] = Cmax in overnight fasted ICR mouse at 10 mg/kg, po measured upto 24 hrs by UPLC-MS/MS analysis; type: ADME, organism-based; set-up: dose 10 mg/kg, time < 24 hrs, route po; conditions: in vivo

Structure (SMILES): CC(C)NC[C@@H](C(=O)N1C2CCC1CN(c1ncnc3c1[C@H](C)CC(=O)N3)C2)c1ccc(Cl)cc1
AUC(0-inf) [3]: 911 ng·h/mL | IC50 (LNCaP [4]): 0.079 µM

Structure (SMILES): CC(C)NC[C@@H](C(=O)N1CCN(c2cc[nH]c(=O)c2)CC1)c1ccc(Cl)cc1
IC50 [1]: > 1 µM

Structure (SMILES): CC(C)NC[C@@H](C(=O)N1CCN(c2ncnc3c2[C@H](C)C[C@H]3O)CC1)c1ccc(Cl)cc1 [IPATASERTIB]
IC50 (PC-3): 3.54 µM | IC50 (RL95-2): 0.331 µM | IC50 (TOV21G): 0.715 µM | IC50 (C-33-A): 0.726 µM | IC50 (T47D): 0.328 µM | IC50 (ZR-75-1): 1.32 µM | IC50 (cells): 0.945 µM | IC50 (CAL-51): 0.265 µM

Structure (SMILES): CC(C)NC[C@@H](C(=O)N1C2CCC1CN(c1ncnc3c1N(C)CC(=O)N3)C2)c1ccc(Cl)cc1.O=CO
AUC(0-inf) [3]: 2290 ng·h/mL | IC50 (LNCaP [4]): 0.279 µM | inhibition in vivo at 50 mg/kg (LNCaP [5]): 34.5%

Structure (SMILES): CC(C)NC[C@@H](C(=O)N1[C@@H]2CC[C@H]1CN(c1ncnc3c1[C@H](C)OC(=O)N3)C2)c1ccc(Cl)cc1
AUC(0-inf) [3]: 727 ng·h/mL | IC50 (LNCaP [4]): 0.084 µM | IC50 [1]: 0.0006 µM

Structure (SMILES): Cc1c(CO)ncnc1N1CCN(C(=O)[C@H](CNC(C)C)c2ccc(Cl)cc2)CC1
IC50 [1]: > 1 µM

Structure (SMILES): CC(C)NC[C@@H](C(=O)N1C[C@H]2CC[C@@H](C1)N2c1ncnc2c1N(C)CC(=O)N2)c1ccc(Cl)cc1
IC50 [1]: 0.03 µM

Structure (SMILES): CC(C)NC[C@@H](C(=O)N1C[C@H]2CC[C@@H](C1)N2c1ncnc2c1[C@H](C)OC(=O)N2)c1ccc(Cl)cc1
AUC(0-inf) [3]: 3030 ng·h/mL | IC50 (LNCaP [4]): 0.236 µM | IC50 [1]: 0.0016 µM | inhibition in vivo at 50 mg/kg (LNCaP [5]): 28%

Structure (SMILES): CC(C)NC[C@@H](C(=O)N1CC2CCC(C1)N2c1ncnc2c1[C@H](C)CC(=O)N2)c1ccc(Cl)cc1
AUC(0-inf) [3]: 1480 ng·h/mL | IC50 (LNCaP [4]): 0.446 µM

The next lines start with results.

IC50 (Cytochrome P450 2C19): > 30 µM | IC50 [1]: 0.0041 µM | IC50 (Cytochrome P450 2D6): > 30 µM | IC50 (Cytochrome P450 2C9): > 30 µM | IC50 (Cytochrome P450 3A4): 4.33 µM | IC50 (Cytochrome P450 1A2): > 30 µM
Structure (SMILES): C[C@@H]1CC(=O)Nc2ncnc(N3CCN(C(=O)[C@H](CNC4C5COCC54)c4ccc(Cl)cc4)[C@@H]4C[C@@H]43)c21 (stereo partly specified)

IC50 [1]: > 1 µM
Structure (SMILES): CC(C)NC[C@@H](C(=O)N1CC2(C1)CN(c1ncnc3c1[C@H](C)CC(=O)N3)C2)c1ccc(Cl)cc1

IC50 (Cytochrome P450 2C19): > 30 µM | IC50 [1]: 0.0068 µM | IC50 (Cytochrome P450 2D6): > 30 µM | IC50 (Cytochrome P450 2C9): > 30 µM | IC50 (Cytochrome P450 3A4): 10.1 µM | IC50 (Cytochrome P450 1A2): 6.48 µM
Structure (SMILES): C[C@@H]1CC(=O)Nc2ncnc(N3CCN(C(=O)[C@H](CN)c4ccc(Cl)cc4)[C@@H]4C[C@@H]43)c21

bioavailability [2]: 26.5% | AUC(0-inf) [3]: 2580 ng·h/mL | IC50 (LNCaP [4]): 0.201 µM | IC50 [1]: 0.0006 µM
Structure (SMILES): CC(C)NC[C@@H](C(=O)N1CCN(c2ncnc3c2[C@H](C)OC(=O)N3)[C@H]2C[C@H]21)c1ccc(Cl)cc1
inhibition in vivo at 50 mg/kg (LNCaP [5]): 94.1%

IC50 (Cytochrome P450 2C19): 30 µM | IC50 [1]: 0.0013 µM | IC50 (Cytochrome P450 2D6): 30 µM | IC50 (Cytochrome P450 2C9): 30 µM | IC50 (Cytochrome P450 3A4): 1.81 µM | IC50 (Cytochrome P450 1A2): 30 µM
Structure (SMILES): COC1CCC(NC[C@@H](C(=O)N2CCN(c3ncnc4c3[C@H](C)CC(=O)N4)[C@H]3C[C@H]32)c2ccc(Cl)cc2)CC1 (stereo partly specified)

IC50 [1]: > 1 µM
Structure (SMILES): CC(C)NC[C@@H](C(=O)N1CCC(c2ncnc3c2[C@H](C)CC(=O)N3)CC1)c1ccc(Cl)cc1

IC50 (Cytochrome P450 2C19): > 30 µM | IC50 (Cytochrome P450 2D6): > 30 µM | IC50 (Cytochrome P450 2C9): > 30 µM | IC50 (Cytochrome P450 3A4): 1.09 µM | IC50 (Cytochrome P450 1A2): > 30 µM
Structure (SMILES): C[C@@H]1CC(=O)Nc2ncnc(N3CCN(C(=O)[C@H](CNC4CC4)c4ccc(Cl)cc4)[C@@H]4C[C@@H]43)c21

IC50 (Cytochrome P450 2C19): > 50 µM | fraction unbound at 16 h, up to 100 µM [6]: 0.513 | clearance [7]: 178 mL/min/kg | bioavailability [2]: 26.6% | AUC(0-inf) [3]: 241 ng·h/mL | IC50 (LNCaP [4]): 0.103 µM | IC50 [1]: 0.0016 µM | IC50 (Cytochrome P450 2D6): > 50 µM | fraction unbound at 16 h, up to 100 µM [8]: 0.477 | IC50 (Cytochrome P450 2C9): > 50 µM | MRT last at 24 h [9]: 2.23 h | half-life [10]: 1.56 h | fraction unbound at 16 h, up to 100 µM [11]: 0.513 | Tmax [12]: 2 h | IC50 (Cytochrome P450 3A4): 39.2 µM | AUC(0-inf) [13]: 181 ng·h/mL | IC50 (Cytochrome P450 1A2): 25.2 µM | Cmax [14]: 84.3 ng/mL
Structure (SMILES): CC(C)NC[C@@H](C(=O)N1CCN(c2ncnc3c2[C@H](C)CC(=O)N3)CC1)c1ccc(Cl)cc1
inhibition in vivo at 50 mg/kg (LNCaP [5]): 50%

IC50 [1]: 0.414 µM
Structure (SMILES): CC(C)NC[C@@H](C(=O)N1CC2CC1CN2c1ncnc2c1[C@H](C)CC(=O)N2)c1ccc(Cl)cc1 (stereo partly specified)

IC50 [1]: 0.951 µM
Structure (SMILES): CC(C)NC[C@@H](C(=O)N1CC=C(c2ncnc3c2[C@H](C)CC(=O)N3)CC1)c1ccc(Cl)cc1

IC50 [1]: > 1 µM
Structure (SMILES): CC(C)NC[C@@H](C(=O)N1CCN(c2ncnc3c2[C@@H](C)CC(=O)N3)CC1)c1ccc(Cl)cc1

IC50 [1]: 0.22 µM
Structure (SMILES): CC(C)NC[C@@H](C(=O)N1CCN(c2ncnc3c2[C@H](C)CC(=O)N3)C[C@@H]1C)c1ccc(Cl)cc1

AUC(0-inf) [3]: 947 ng·h/mL | IC50 (LNCaP [4]): 0.131 µM | IC50 [1]: 0.0016 µM
Structure (SMILES): [2H]C1([2H])N(C(=O)[C@H](CNC(C)C)c2ccc(Cl)cc2)C([2H])([2H])C([2H])([2H])N(c2ncnc3c2[C@H](C)CC(=O)N3)C1([2H])[2H]
